Laboratory results: ChEMBL document CHEMBL3804811 (J Med Chem, 2016)

Key:
[1] = Antiproliferative activity against human KARPAS299 cells incubated for 72 hrs by cell titer-glo assay; conditions: KARPAS-299, 72 h
[2] = Apparent permeability from apical to basolateral side in human Caco2 cells at 2.5 mg/ml after 2 hrs by reversed-phase HPLC method; assay type: ADME, cell-based; conditions: Caco-2
[3] = Apparent permeability from basolateral to apical side in human Caco2 cells at 2.5 mg/ml after 2 hrs by reversed-phase HPLC method; assay type: ADME, cell-based; conditions: Caco-2
[4] = Intrinsic clearance in human liver microsomes at […] preincubated for 5 mins followed by NADPH addition measured after 5 to 30 mins by LC-MS/MS analysis; assay type: ADME; conditions: read-out: CLH
[5] = AUC (infinity) in Harlan nu/nu mouse at 10 mg/kg, iv administered as single dose by LC-MS/MS analysis; assay type: ADME, organism-based; parameters: dose 10 mg/kg, time infinity, route intravenous; conditions: in vivo
[6] = Clearance in Harlan nu/nu mouse at 10 mg/kg, iv administered as single dose by LC-MS/MS analysis; assay type: ADME, organism-based; conditions: in vivo
[7] = Cmax in Harlan nu/nu mouse at 10 mg/kg, po administered as single dose by LC-MS/MS analysis; assay type: ADME, organism-based; parameters: dose 10 mg/kg, route oral; conditions: in vivo
[8] = Tmax in Harlan nu/nu mouse at 10 mg/kg, po administered as single dose by LC-MS/MS analysis; assay type: ADME, organism-based; conditions: in vivo
[9] = Half life in Sprague-Dawley rat at 10 mg/kg, iv administered as single dose by LC-MS/MS analysis; assay type: ADME, organism-based; conditions: in vivo
[10] = Cmax in Sprague-Dawley rat at 10 mg/kg, po administered as single dose by LC-MS/MS analysis; assay type: ADME, organism-based; parameters: dose 10 mg/kg, route oral; conditions: in vivo
[11] = Tmax in Sprague-Dawley rat at 10 mg/kg, po administered as single dose by LC-MS/MS analysis; assay type: ADME, organism-based; conditions: in vivo
[12] = AUC (infinity) in Sprague-Dawley rat at 10 mg/kg, po administered as single dose by LC-MS/MS analysis; assay type: ADME, organism-based; parameters: dose 10 mg/kg, time infinity, route oral; conditions: in vivo
[13] = Cmax in Beagle dog at 10 mg/kg, iv administered as single dose by LC-MS/MS analysis; assay type: ADME, organism-based, Canis lupus familiaris; parameters: dose 10 mg/kg, route intravenous; conditions: in vivo
[14] = Antiproliferative activity against human MV411 cells incubated for 72 hrs by cell titer-glo assay; assay type: functional, cell-based; conditions: MV4-11, 72 h
[15] = Antiproliferative activity against human SR786 cells expressing ALK protein incubated for 72 hrs by cell titer-glo assay; assay type: functional, cell-based; conditions: SR-786, 72 h
[16] = target: T1, Tyrosine-protein kinase JAK3 (Homo sapiens, UniProt P52333); assay: Inhibition of JAK3 (unknown origin) in presence of gamma33-ATP
T1 sequence (P52333 whole entry): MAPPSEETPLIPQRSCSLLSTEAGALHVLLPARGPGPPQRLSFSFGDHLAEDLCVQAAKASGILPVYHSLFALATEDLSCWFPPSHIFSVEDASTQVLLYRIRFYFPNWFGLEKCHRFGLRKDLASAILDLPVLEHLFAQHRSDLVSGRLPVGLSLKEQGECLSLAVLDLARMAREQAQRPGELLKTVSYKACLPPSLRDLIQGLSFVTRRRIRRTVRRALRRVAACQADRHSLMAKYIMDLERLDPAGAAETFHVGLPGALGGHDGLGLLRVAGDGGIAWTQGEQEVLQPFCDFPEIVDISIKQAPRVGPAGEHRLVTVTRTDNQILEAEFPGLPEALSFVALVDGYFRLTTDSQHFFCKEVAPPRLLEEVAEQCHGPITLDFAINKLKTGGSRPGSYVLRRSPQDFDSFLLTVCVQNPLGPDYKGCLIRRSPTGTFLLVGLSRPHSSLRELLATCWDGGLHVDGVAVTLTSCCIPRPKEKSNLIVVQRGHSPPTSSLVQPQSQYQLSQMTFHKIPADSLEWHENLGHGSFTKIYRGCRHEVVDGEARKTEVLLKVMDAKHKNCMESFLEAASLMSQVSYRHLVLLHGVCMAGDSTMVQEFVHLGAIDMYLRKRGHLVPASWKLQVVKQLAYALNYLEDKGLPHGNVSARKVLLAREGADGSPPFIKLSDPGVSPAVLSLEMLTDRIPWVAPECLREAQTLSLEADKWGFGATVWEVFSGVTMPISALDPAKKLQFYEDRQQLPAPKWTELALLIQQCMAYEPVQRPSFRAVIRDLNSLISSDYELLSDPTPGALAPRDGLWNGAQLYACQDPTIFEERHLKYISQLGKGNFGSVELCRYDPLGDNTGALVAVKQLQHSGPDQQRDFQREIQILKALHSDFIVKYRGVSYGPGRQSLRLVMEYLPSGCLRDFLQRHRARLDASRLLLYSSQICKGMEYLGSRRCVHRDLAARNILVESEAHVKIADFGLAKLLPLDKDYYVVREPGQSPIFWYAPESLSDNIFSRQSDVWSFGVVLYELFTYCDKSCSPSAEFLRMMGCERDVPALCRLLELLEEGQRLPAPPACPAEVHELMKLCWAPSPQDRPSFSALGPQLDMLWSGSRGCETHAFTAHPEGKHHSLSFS

[17] = target: Mast/stem cell growth factor receptor Kit (Homo sapiens, UniProt P10721); assay: Inhibition of KIT (unknown origin) in presence of gamma33-ATP
Chain of Mast/stem cell growth factor receptor Kit (P10721 whole entry): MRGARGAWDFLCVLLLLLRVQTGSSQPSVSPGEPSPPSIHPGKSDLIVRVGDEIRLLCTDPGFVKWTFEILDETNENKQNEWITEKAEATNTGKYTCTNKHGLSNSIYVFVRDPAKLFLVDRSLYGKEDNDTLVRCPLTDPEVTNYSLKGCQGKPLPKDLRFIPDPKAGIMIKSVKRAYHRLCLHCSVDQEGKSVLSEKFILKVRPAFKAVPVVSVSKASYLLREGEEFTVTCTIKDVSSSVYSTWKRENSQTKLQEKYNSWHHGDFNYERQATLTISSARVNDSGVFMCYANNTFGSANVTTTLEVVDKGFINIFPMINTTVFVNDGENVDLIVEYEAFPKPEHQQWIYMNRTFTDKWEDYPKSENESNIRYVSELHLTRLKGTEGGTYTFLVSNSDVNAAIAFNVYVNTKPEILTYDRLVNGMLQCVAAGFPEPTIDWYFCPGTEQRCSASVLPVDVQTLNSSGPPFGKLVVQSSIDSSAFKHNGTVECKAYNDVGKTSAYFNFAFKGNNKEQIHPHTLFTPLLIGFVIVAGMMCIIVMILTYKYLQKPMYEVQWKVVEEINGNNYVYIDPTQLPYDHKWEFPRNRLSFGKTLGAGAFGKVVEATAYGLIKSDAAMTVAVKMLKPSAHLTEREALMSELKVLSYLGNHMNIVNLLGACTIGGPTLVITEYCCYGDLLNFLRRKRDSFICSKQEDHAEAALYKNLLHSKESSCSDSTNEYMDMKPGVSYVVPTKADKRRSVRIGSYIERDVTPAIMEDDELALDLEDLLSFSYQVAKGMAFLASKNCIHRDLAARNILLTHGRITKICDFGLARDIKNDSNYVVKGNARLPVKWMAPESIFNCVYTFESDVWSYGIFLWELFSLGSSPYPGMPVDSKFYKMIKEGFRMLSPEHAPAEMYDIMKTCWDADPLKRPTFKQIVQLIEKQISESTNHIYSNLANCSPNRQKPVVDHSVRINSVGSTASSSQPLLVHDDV

[18] = Inhibition of SULU1 (unknown origin) in presence of gamma33-ATP; parameters: species or system Homo sapiens
[19] = Ratio of drug level in brain to plasma in Harlan nu/nu mouse at 240 mg/kg, po administered per day for 2 weeks measured 6 hrs post last dose by LC-MS/MS analysis; assay type: ADME, organism-based; conditions: read-out: BPR
Mus musculus = assay: Toxicity in SCID mouse xenografted with human KARPAS299 cells assessed as body weight loss at 30 to 60 mg/kg, po bid administered for 10 days; assay type: organism-based, KARPAS-299; conditions: in vivo, 240 h

Papp A→B at 2 h, 2.5 mg/ml [2]: 2.4 ×10⁻⁶ cm/s | Papp B→A at 2 h, 2.5 mg/ml [3]: 3 ×10⁻⁶ cm/s | CLint scaled [4]: 33 mL/min/kg | AUC(0-inf) [5]: 19.6 µM·h | clearance [6]: 13.5 mL/min/kg | Cmax [7]: 1330 nM | Tmax [8]: 2.5 h | half-life [9]: 3.5 h | Cmax [10]: 500 nM | Tmax [11]: 3.08 h | AUC(0-inf) [12]: 5.13 µM·h | Cmax [13]: 8600 nM | IC50 [16]: 349 nM | IC50 [17]: > 1000 nM | IC50 [18]: > 10000 nM | Kp at 6 h [19]: 0.43
Structure (SMILES): CN1CCN(c2ccc(C(=O)Nc3n[nH]c4ccc(Cc5cc(F)cc(F)c5)cc34)c(NC3CCOCC3)c2)CC1 [ENTRECTINIB]
IC50 [1]: 31 nM | IC50 [14]: 81 nM | IC50 [15]: 81 nM | Activity (Mus musculus): Non-toxic
